Measured values taken from patent publication US6818407B2, “Anti-endotoxic antimicrobial cationic peptides and methods of use therfor” (priority 1998, dated 2004).

Legend:
E. coli [1] = experiment: MIC, broth microdilution assay in polypropylene microtiter trays; type: cell-based; conditions: average of three separate experiments
Summary of the method: (§1)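 Serially titrated peptides incubated with bacteria; growth tracked as OD; lowest level without OD change over the given period reported as MIC.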

P. aeruginosa = experiment: as above; type: cell-based; conditions: average of three separate experiments
Summary of the method: as §1

S. aureus K147 = experiment: as above; type: cell-based; conditions: average of three separate experiments
Summary of the method: as §1

S. aureus = experiment: as above; type: cell-based; conditions: average of three separate experiments
Summary of the method: as §1

[2] = test system: mutant (Nal B, H744) of P. aeruginosa; experiment: microbe, parasite or virus in culture; type: cell-based
Summary of the method: (§2)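 Checkerboard titration in Mueller Hinton broth, peptide against carbenicillin or ciprofloxacin, inoculum 10 μl of 10^−4 dilution of overnight culture, 18-24 h at 37 °C. Combination MIC is the lowest concentration reducing growth >50%. FIC index = A/MIC A + B/MIC B, with ≤~0.5 synergy, 1.0 additivity, >1.0 antagonism.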

[3] = test system: β-lactamase derepressed mutant (H547) of P. aeruginosa; experiment: microbe, parasite or virus in culture; type: cell-based; conditions: P. aeruginosa H547
Summary of the method: as §2

E. coli [4] = experiment: Synergy study (checkerboard titration) with hen white lysozyme; type: cell-based
P. aeruginosa (H103) = experiment: as above; type: cell-based
Salmonella typhi = experiment: as above; type: cell-based
[5] = test system: Pseudomonas aeruginosa strain M2; experiment: Protection of neutropenic CD-1 mice challenged with Pseudomonas aeruginosa; type: in vivo; set-up: Survival post bacterial challenge, surviving mice: reference not given here; conditions: for Survival (%) post bacterial challenge: PBS 8
Summary of the method: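 Neutropenia induced by three i.p. cyclophosphamide doses ([…], alternate days); mice then infected i.p. with 200-300 organisms/mouse. Peptides (200 µg/mouse = 8 mg/kg) in buffered citrate given i.p. at 30 min (single) or 30 min and 16 hrs (double) post-challenge; PBS control; mean of 2 experiments.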

[6] = cationic peptide concentration, combined with lysozyme
[7] = lysozyme concentration, combined with the peptide

## CC[C@H](C)[C@H](NC(=O)CNC(=O)[C@@H](NC(=O)[C@H](CCCCN)NC(=O)[C@H](CCCCN)NC(=O)[C@H](Cc1ccccc1)NC(=O)[C@H](CC(C)C)NC(=O)[C@H](CCCCN)NC(=O)[C@H](Cc1c[nH]c2ccccc12)NC(=O)[C@H](CC(C)C)NC(=O)[C@@H](N)CCCCN)[C@@H](C)CC)C(=O)NCC(=O)N[C@@H](C)C(=O)N[C@H](C(=O)N[C@@H](CC(C)C)C(=O)N[C@@H](CCCCN)C(=O)N[C@H](C(=O)N[C@@H](CC(C)C)C(=O)N[C@@H](CCCCN)C(=O)N[C@H](C(=O)N[C@@H](CC(C)C)C(=O)N[C@H](C(=O)N[C@H](C(=O)NCC(=O)N[C@@H](CC(C)C)C(=O)N1CCC[C@H]1C(=O)N[C@@H](C)C(=O)N[C@@H](CC(C)C)C(=O)N[C@@H](CCCCN)C(=O)N[C@@H](CC(C)C)C(=O)N[C@H](C(=O)N[C@@H](CC(C)C)C(=O)N[C@@H](CCCCN)C(=O)O)[C@@H](C)O)[C@@H](C)O)[C@@H](C)O)C(C)C)C(C)C)C(C)C [CM7]
E. coli [1]
  MIC E. coli: 2 µg/mL
P. aeruginosa
  MIC P. aeruginosa: 8 µg/mL
S. aureus K147
  MIC S. aureus K147: 4 to 8 µg/mL
S. aureus
  MIC S. aureus: 8 µg/mL
[2]; ciprofloxacin with peptide at concentration (A), Nal B, H744
  (B) MIC of Cipro when combined with peptide: .125 µg/mL
[2]; peptide + ciprofloxacin, Nal B, H744
  FIC index: .63
[2]; peptide alone, P. aeruginosa mutant Nal B, H744 (Table 5)
  MIC A MIC of Peptides: 16 µg/mL
[2]; peptide concentration in combination with ciprofloxacin, Nal B, H744
  (A) Peptide doses together with Cipro: 2 µg/mL
[3]; Carbenicillin with peptide at concentration (A)
  (B) MIC of Carb when combined with peptide: 64 µg/mL
[3]; peptide alone
  MIC A MIC of Peptides: 32 µg/mL
[3]; peptide concentration in combination with Carbenicillin
  (A) Peptide doses together with Carb: 2 µg/mL
E. coli [4]
  FIC for combination of cationic peptide and lysozyme: 0.31
E. coli [4]; [6]
  Lowest [CP] showing synergy: 0.65 µg/mL
E. coli [4]; [7]
  Lowest [Lyso] showing synergy: 7.8 µg/mL
P. aeruginosa (H103)
  FIC for combination of cationic peptide and lysozyme: 0.75
P. aeruginosa (H103); [6]
  Lowest [CP] showing synergy: 2.6 µg/mL
P. aeruginosa (H103); [7]
  Lowest [Lyso] showing synergy: 250 µg/mL
Salmonella typhi
  FIC for combination of cationic peptide and lysozyme: 0.52
Salmonella typhi; [6]
  Lowest [CP] showing synergy: 2.61 µg/mL
Salmonella typhi; [7]
  Lowest [Lyso] showing synergy: 15.6 µg/mL
[5]; double dose (200 μg per mouse i.p. at 30 min and 16 hrs), 16 hr
  Survival post bacterial challenge, surviving mice: 12
[5]; double dose, 24 hr
  Survival post bacterial challenge, surviving mice: 12
[5]; double dose, 41 hr
  Survival post bacterial challenge, surviving mice: 8
[5]; double dose, 48 hr
  Survival post bacterial challenge, surviving mice: 6
[5]; double dose, 64 hr
  Survival post bacterial challenge, surviving mice: 5
  Survival (%) post bacterial challenge: 41%
[5]; double dose, 72 hr
  Survival post bacterial challenge, surviving mice: 5
  Survival (%) post bacterial challenge: 41%
[5]; double dose, 96 hr
  Survival post bacterial challenge, surviving mice: 5
  Survival (%) post bacterial challenge: 41%
[5]; single dose (200 μg per mouse i.p. at 30 min), 16 hr
  Survival post bacterial challenge, surviving mice: 15
[5]; single dose, 24 hr
  Survival post bacterial challenge, surviving mice: 15
[5]; single dose, 41 hr
  Survival post bacterial challenge, surviving mice: 13
[5]; single dose, 48 hr
  Survival post bacterial challenge, surviving mice: 13
[5]; single dose, 64 hr
  Survival post bacterial challenge, surviving mice: 12
  Survival (%) post bacterial challenge: 80%
[5]; single dose, 72 hr
  Survival post bacterial challenge, surviving mice: 11
  Survival (%) post bacterial challenge: 73%
[5]; single dose, 96 hr
  Survival post bacterial challenge, surviving mice: 11
  Survival (%) post bacterial challenge: 73%
